Legend:
[1] = Basic safety tests (mutagenicity, biodegradability, oral acute toxicity, primary skin irritation, primary eye irritation); details: biodegradability and three acute toxicity tests performed by a designated organization
Source text: In the development of drugs, quasi drugs, foods and the like, the most important and the biggest hurdle is the verification of safety of a rare sugar as a novel substance. A mutagenicity test, a biodegradability test and three types of acute toxicity tests (an oral acute toxicity test, a primary skin irritation test and a primary eye irritation test) are defined as the most basic safety tests. A rare sugar is a monosaccharide that exists in nature even in a small amount, therefore, it can be predicted that it will be safe. However, it is necessary to perform verification precisely. We asked the designated organization to perform the basic safety tests for three types of rare sugars, D-psicose, D-allose and allitol among rare sugars.

[2] = system: CLA-1 promoter; assay: CLA-1 promoter luciferase reporter gene activity in HepG2 cells; format: cell-based, human; details: HepG2, 24 hours; 2.8-22.4 mM D-glucose or 22.4 mM D-psicose
Description: Further, by integrating a 1200 by promoter region of the CLA-1 gene into a luciferase reporter gene, introducing the gene into a cell and measuring the luciferase activity, the transcriptional activity of CLA-1 was determined.
6. The transcriptional activity of CLA-1 was also examined. The luciferase reporter gene containing the CLA-1 promoter was introduced into HepG2 cells and the resulting HepG2 cells were cultured with 2.8 mM (lane 1), 5.6 mM (lane 2), 11.2 mM (lane 3), 22.4 mM (lane 4) D-glucose or 22.4 mM D-psicose for 24 hours and the luciferase activity was measured. A high concentration of D-glucose inhibited the activity of the CLA-1 promoter.

In the case of `O=C[C@H](O)[C@H](O)[C@H](O)[C@H](O)CO` [D-allose], the basic safety tests [1] is reported as “there are not any problems in the safety”.
With `O=C[C@H](O)[C@@H](O)[C@H](O)[C@H](O)CO` [D-glucose, reference compound] the “activity of the CLA-1 promoter (luciferase activity)” value [2] was “inhibited”.
For `O=C(CO)[C@H](O)[C@H](O)[C@H](O)CO` [D-psicose], the “activity of the CLA-1 promoter (luciferase activity)” value [2] was “did not affect” and the basic safety tests [1] was “there are not any problems in the safety”.
With `OC[C@@H](O)[C@@H](O)[C@@H](O)[C@@H](O)CO` [allitol] the basic safety tests [1] was “there are not any problems in the safety”.
